Laboratory results from patent US20230295259A1 (Protagonist Therapeutics, Inc., priority 2020, published 2023).

What was measured:
LAD2 cells = assay type: cell-based, human
Outline: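 Compound serial dilutions were added to LAD2 human mast cells for 30 min. β-Hexosaminidase in supernatants and cell lysates was quantified with the fluorogenic substrate 4-methylumbelliferyl-N-acetyl-b-D-glucosaminide. Dose-response curves plotted % β-hexosaminidase release against peptide concentration.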

[1] = Stability in simulated intestinal fluid (FaSSIF with 1% pancreatin); assay type: in vitro ADME; conditions: pig, pH 6.5, Table 2A, 20 μM in FaSSIF with 1% pancreatin, 37° C., percent in brackets not explained, read-out: SIF Half life
Experimental: FaSSIF was prepared by dissolving 1.2 g porcine pancreatin (Chem-supply, PL378) in 100 mL Blank FaSSIF and stirred at room temperature for 30 minutes. The solution was filtered through 0.45 μm membrane and aliquot and stored at −20° C.
Experimental compounds of interest (20 μM) were incubated with pre-warmed FaSSIF (1% pancreatin in final incubation mixture) at 37° C. Aliquots were taken at various time points up to 24 hours (e.g. 0, 0.25, 1, 3, 6 and 24 hr), and immediately quenched with 4 volumes of organic solvent (acetonitrile/methanol (1:1) and 0.1% formic acid, containing 1 μM internal standard). Quenched samples were stored at 4° C. until the end of the experiment and centrifuged at 4,000 rpm for 10 minutes. The supernatant was diluted 1:1 with deionized water and analyzed using LC-MS. Percentage remaining at each time point was calculated based on the peak area ratio (analyte over internal standard) relative to the initial level at time zero. Half-lives were calculated by fitting to a first-order exponential decay equation using GraphPad.
Compounds of interest (at concentration of 20 μM) were mixed with pre-warmed FaSSIF (1% pancreatin in final working solution). The solution mixture was aliquoted and incubated at 37° C. The number of aliquots required was equivalent to the number of time points (e.g. 0, 0.25, 1, 3, 6 and 24 hr). […]

EC50 (LAD2 cells): 12.9 µM
half-life at 20 μM [1]: 1.5 h
SMILES: CC[C@H](C)[C@@H]1NC(=O)[C@@H](NC(=O)[C@@H]2CCCN2C(=O)[C@@H](NC(=O)[C@H](Cc2cnc[nH]2)NC(=O)[C@@H](NC(=O)[C@H](CCC(=O)O)NC(=O)CC(C)C)C(C)O)C(c2ccccc2)c2ccccc2)CSSC[C@@H](C(N)=O)NC(=O)[C@@H](CCCCN)NC(=O)C[C@H](Cc2ccccc2)NC(=O)[C@H](CCCCNC(=O)COCCOCCNC(=O)COCCOCCNC(=O)CCCCCNC(=O)CCCCCCCCCCCCCCCCC(=O)O)NC1=O (some centres unmarked) [Compound 12, Isovaleric Acid-E-T-H-[Dpa]-P-[Cys]-I-[Lys(1Peg2_1Peg2_Ahx_C18_Diacid)]-[bhPhe]-[(D)Lys]-[Cys]-NH2]
